From patent US20230372529A1, “MITOCHONDRIA COMPRISING ANTICANCER DRUG AND USE THEREOF” (Paean Biotechnology Inc., priority 2020, published 2023)

Assays:
[1] = test system: SK-BR-3, BT-474, MDA-MB-231, NCI-H1975, NCI-N87 and MKN-74; assay: cancer cell proliferation inhibition for each concentration, WST-1 assay (DOX series); format: cell-based, human; details: 0.01 to 2 μM, 144 hours, versus untreated group (NC)
Protocol: Specifically, the human breast cancer (SK-BR-3, BT-474 and MDA-MB-231), lung cancer (NCI-H1975) and gastric cancer (NCI-N87 and MKN-74) cell lines were inoculated into a 96-well plate at about 3×10^3 cells/well, respectively, and cultured for 24 hours. At this time, SK-BR-3, BT-474 and NCI-N87 cells were cultured in RPMI-1640 medium containing 10% FBS, and MDA-MB-231, NCI-H1975 and MKN-74 cells were cultured in DMEM medium containing 10% FBS. After culturing for 24 hours, each cell was treated with doxorubicin (DOX) or DOX_MT^α-HER2scFv at a concentration of 2 μM, 1 μM, 0.5 μM, 0.25 μM, 0.1 μM, 0.05 μM, 0.025 μM, and 0.01 μM. After 144 hours of sample treatment, cell proliferation was measured by WST-1 assay.

[2] = test system: human lung fibroblast cell lines WI-38 and CCD-8Lu; assay: proliferation inhibition in normal cells for each concentration, WST-1 assay (DOX series); format: cell-based; details: 0.01 to 2 μM, 144 hours
Protocol: 200 μg of MT^α-HER2scFv and 100 μM doxorubicin (DOX) were reacted in the same manner as in Preparation Example 2 above. In order to confirm the influence of the obtained DOX_MT^α-HER2scFv on cell proliferation in normal cells, the cell proliferation inhibitory effect by treatment with DOX_MT^α-HER2scFv in human lung fibroblasts was evaluated.
Specifically, the human lung fibroblast cell lines WI-38 and CCD-8Lu were inoculated into a 96-well plate at about 3×10^3 cells/well, respectively, and cultured for 24 hours. At this time, WI-38 and CCD-8Lu were cultured in DMEM medium containing 10% FBS. After culturing for 24 hours, each cell was treated with doxorubicin (DOX) or DOX_MT^α-HER2scFv at a concentration of 2 μM, 1 μM, 0.5 μM, 0.25 μM, 0.1 μM, 0.05 μM, 0.025 μM, and 0.01 μM. After 144 hours of sample treatment, cell proliferation was measured by WST-1 assay.

[3] = test system: SK-BR-3, BT-474, MDA-MB-231, NCI-H1975, MKN-74 and NCI-N87; assay: proliferation inhibition at the same concentration, WST-1 assay, cancer cells (DOX series); format: cell-based; details: Homo sapiens, 144 hours, read-out: cell proliferation inhibitory effect compared to the untreated group, cancer cells
Protocol: (§1) 200 μg of MT^α-HER2scFv and 100 μM doxorubicin (DOX) were reacted in the same manner as in Preparation Example 2 above. In order to compare the influence of the obtained DOX_MT^α-HER2scFv on cell proliferation in cancer cells and normal cells, after treatment with DOX_MT^α-HER2scFv at the same concentration in the human breast cancer, lung cancer, gastric cancer cell lines and the lung fibroblast cell line, the cell proliferation inhibitory ability was measured.
(§2) Specifically, the human breast cancer (SK-BR-3, BT-474 and MDA-MB-231), lung cancer (NCI-H1975), gastric cancer (MKN-74 and NCI-N87) cell lines and the lung fibroblast cell line (CCD-8Lu and WI-38) were inoculated into a 96-well plate at about 3×10^3 cells/well, respectively, and cultured for 24 hours. At this time, SK-BR-3, BT-474 and NCI-N87 cells were cultured in RPMI-1640 medium containing 10% FBS. MDA-MB-231, NCI-H1975, MKN-74, CCD-8Lu, and WI-38 cells were cultured in DMEM medium containing 10% FBS. After culturing for 24 hours, the cells were treated with 0.5 μM doxorubicin (DOX) or DOX_MT^α-HER2scFv respectively, and after 144 hours, the cell proliferation inhibitory ability was evaluated by WST-1 assay. […] Statistical processing was performed using Graphpad 5.0 software, and p values were measured with one-way ANOVA (Turkey's) test (*p<0.05, **p<0.01, and ***p<0.001).

[4] = test system: lung fibroblast cell line (CCD-8Lu and WI-38); assay: proliferation inhibition at the same concentration, WST-1 assay, normal cells (DOX series); format: cell-based; details: Homo sapiens, 144 hours, read-out: cell proliferation inhibitory effect compared to the untreated group, normal cells
Protocol: as §1, §2

[5] = test system: mouse melanoma cell line B16F10 overexpressing human HER2, allograft; assay: anticancer activity of DOX_MT^α-HER2scFv in allograft tumor animal model; format: in vivo; details: MT^α-HER2scFv 20 μg, DOX 4 μg, DOX_MT^α-HER2scFv 4 μg/20 μg, intravenously 3 times a week for 3 weeks
Text: 7-week-old C57BL/6 female mice (Samtako Bio Korea) were acclimatized for 1 week, and then the mouse melanoma cell line B16F10 was subcutaneously transplanted into the lateral abdomen of the mice at about 5×10^5 cells/mouse to construct an allograft tumor mouse. At this time, B16F10 cells in which the human HER2 gene was overexpressed using lentivirus were used as B16F10 cells. When the average volume of the tumor reached 100˜200 mm^3, the mice were divided into 4 groups of 3 mice per test group, and MT^α-HER2scFv (20 μg), DOX (4 μg) or DOX_MT^α-HER2scFv (TPP-DOX/MT: 4 μg/20 μg) was intravenously administered 3 times a week for 3 weeks. The tumor size was measured 3 times a week, and after the end of the experiment (after 3 weeks from the start of administration), the tumor tissues of the mice were extracted, and the size and weight were measured (FIG. 73).

[6] = test system: SK-BR-3, BT-474, MDA-MB-231, NCI-H1975, NCI-N87 and MKN-74; assay: cancer cell proliferation inhibition for each concentration, WST-1 assay (TPP-DOX series); format: cell-based, human; details: 0.01 to 2 μM, 144 hours, versus untreated group (NC)
Protocol: After culturing for 24 hours, each cell was treated with TPP-DOX or TPP-DOX_MT^α-HER2scFv at a concentration of 2 μM, 1 μM, 0.5 μM, 0.25 μM, 0.1 μM, 0.05 μM, 0.025 μM and 0.01 μM. […] At this time, the mitochondria-only treated group (MT, MT^α-HER2scFv) was used as a negative control for TPP-DOX MT^α-HER2scFv.

[7] = test system: human lung fibroblast cell lines WI-38 and CCD-8Lu; assay: proliferation inhibition in normal cells for each concentration, WST-1 assay (TPP-DOX series); format: cell-based; details: 0.01 to 2 μM, 144 hours
Protocol: Specifically, the human lung fibroblast cell lines WI-38 and CCD-8Lu were inoculated into a 96-well plate at about 3×10^3 cells/well, respectively, and cultured for 24 hours. At this time, WI-38 and CCD-8Lu were cultured in DMEM medium containing 10% FBS. After culturing for 24 hours, each cell was treated with TPP-DOX or TPP-DOX_MT^α-HER2scFv at a concentration of 2 μM, 1 μM, 0.5 μM, 0.25 μM, 0.1 μM, 0.05 μM, 0.025 μM and 0.01 μM. […] At this time, the mitochondria-only treated group (MT, MT^α-HER2scFv) was used as a negative control for TPP-DOX MT^α-HER2scFv.

[8] = test system: lung fibroblast cell line (CCD-8Lu and WI-38); assay: proliferation inhibition at the same concentration, WST-1 assay, normal cells (TPP-DOX series); format: cell-based, human; details: 0.5 μM, 144 hours
Protocol: At this time, the mitochondria-only treated group (MT^α-HER2scFv) was used as a negative control for TPP-DOX_MT^α-HER2scFv. Statistical processing was performed using Graphpad 5.0 software, and p values were measured with one-way ANOVA (Turkey's) test (*p<0.05, **p<0.01 and ***p<0.001).

[9] = test system: HER2^+ human gastric cancer cell line NCI-N87 xenograft; assay: anticancer activity in NCI-N87 xenograft tumor mouse model; format: in vivo; details: 4 μg intravenously
Protocol: 5-week-old BALB/c male nude mice (initial body weight of 18˜20 g) (Nara Biotech) were acclimatized for 1 week, and then HER2^+ human gastric cancer cell line NCI-N87 was subcutaneously transplanted into the lateral abdomen at 1×10^7 cells/mouse to construct a xenograft tumor model mouse. […] The tumor size was measured at an interval of 2˜4 days, and after 25 days from the start of administration, the tumor tissues were extracted, and the size and weight were measured (FIG. 65).

[10] = test system: mouse melanoma cell line B16F10 overexpressing human HER2, allograft; assay: anticancer activity of TPP-DOX_MT^α-HER2scFv in allograft tumor mouse model; format: in vivo; details: MT^α-HER2scFv 20 μg, TPP-DOX 5 μg, TPP-DOX/MT 5 μg/20 μg, intravenously 3 times a week for 3 weeks
Protocol: 7-week-old C57BL/6 female mice (Samtako Bio Korea) were acclimatized for 1 week, and then the mouse melanoma cell line B16F10 was subcutaneously transplanted into the lateral abdomen of the mice at about 5×10^5 cells/mouse to construct an allograft tumor mouse. […] When the average volume of the tumor reached 100˜200 mm^3, the mice were divided into 4 groups of 3 mice per test group, and MT^α-HER2scFv (20 μg), TPP-DOX (5 μg) or TPP-DOX_MT^α-HER2scFv (TPP-DOX/MT: 5 μg/20 μg) was intravenously administered 3 times a week for 3 weeks. The tumor size was measured 3 times a week, and after the end of the experiment (after 3 weeks from the start of administration), the tumor tissues of the mice were extracted, and the size and weight were measured (FIG. 69).

[11] = biological target: T1, PDL1 (human, UniProt Q9NZQ7 19-290); assay: confocal microscopy, MitoTracker Red-stained scFv-fused mitochondria on co-cultured BXPC-3 (PDL1+) and CFPAC-1 (PDL1-) cells
T1 construct: whole, on cells; also called PDL1 antigen
T1 sequence (Q9NZQ7 19-290): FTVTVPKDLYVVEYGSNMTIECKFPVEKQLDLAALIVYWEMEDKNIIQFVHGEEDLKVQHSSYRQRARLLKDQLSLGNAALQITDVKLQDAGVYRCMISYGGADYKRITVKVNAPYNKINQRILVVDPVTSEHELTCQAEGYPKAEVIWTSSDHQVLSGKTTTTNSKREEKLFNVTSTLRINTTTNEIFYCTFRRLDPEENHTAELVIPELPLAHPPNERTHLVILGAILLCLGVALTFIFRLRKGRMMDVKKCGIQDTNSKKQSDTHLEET
Protocol: Mitochondria to be used as samples were prepared by treating untreated HEK293 cells (MT) and HEK293 cells comprising mitochondria fused with an anti-PDL1scFv antibody (MT^{α-PDL1scFv}) with MitoTracker Red to stain the mitochondria, and then isolating the mitochondria. After co-culture for 24 hours, each isolated mitochondrion was treated with the co-cultured cells and reacted for 24 hours (FIG. 47).
The cells treated in the same manner as in Example 4 above were washed once with PBS, and fixed by adding 3.7% formaldehyde at room temperature for 30 minutes, and then immunocytochemistry staining was performed. At this time, an anti-PDL1 antibody (Cell signaling, 86744) was used as a primary antibody, and Alexa Fluor 488 goat anti-rabbit IgG (H+L) was used as a secondary antibody. The nuclei of the cells were observed by staining with DAPI.

COc1cccc2c1C(=O)c1c(O)c3c(c(O)c1C2=O)C[C@@](O)(C(=O)CO)C[C@@H]3O[C@H]1C[C@H](N)[C@H](O)[C@H](C)O1 [DOX, doxorubicin]
cell proliferation inhibitory effect [1]: inhibited in a concentration-dependent manner | cell proliferation inhibitory ability in normal cells [2]: weaker than that of cancer cells | inhibition at 0.5 µM [3]: 50 to 80% | inhibition at 0.5 µM [4]: ≤ 25% | tumor size compared to the control group (CTR) [5]: significantly reduced

triphenylphosphonium (TPP)-doxorubicin [TPP-DOX]
cell proliferation inhibitory effect [6]: inhibited in a concentration-dependent manner | cell proliferation inhibitory ability in normal cells [7]: weaker than that of cancer cells | proliferation inhibitory ability, normal cells [8]: weak | tumor size by date compared to the control group (CTR) [9]: similar | tumor size compared to the control group (CTR) [10]: similar

B1: anti-PDL1scFv antibody fused to the mitochondrial outer membrane (scFvPDL1-myc-TOM7) (scFv)
scFv: MDIVMSQSPSSLAVSAGEKVTMSCKSSQSLLNSRTRKNYLAWYQQKPGQSPKLLIYWASTRESGVPDRFTGSGSGTDFTLTISSVQAEDLAVYYCQQSYDVVTFGAGTKLELKGGGGSGGGGSGGGGSQVQVQQSGAELAEPGASVKMSCKASGYIFTSYWMHWLKQRPGQGLEWIGYINPSSDYNEYSEKFMDKATLTADKASTTAYMQLISLTSEDSAVYYCARSGWLVHGDYYFDYWGQGTTLTVSSEQKLISEEDLVKLSKEAKQRLQQLFKGSQFAIRWGFIPLVIYLGFKRGADPGMPEPTVLSLLWG
notes: In the assay the fusion protein was anchored on the outer membrane of mitochondria isolated from HEK293 cells (MT^α-PDL1scFv); also called MT^α-PDL1scFv; single chain variable region fragment of an anti-PDL1 antibody
binding result [11]: binds
